Data from US8603986B2, “Compounds and methods for modulating cadherin-mediated processes” (McGill University, priority 2005, dated 2013).

Key:
[1] = molecular target: T1, VE-cadherin/Fc chimeric protein (Homo sapiens, UniProt P33151); assay: Cadherin specificity: phage ELISA on VE-cadherin/Fc; type: binding; design: key: +: Phage bound to the chimeric protein; −: No phage bound to the chimeric protein
T1 construct: purchased R&D Systems, Minneapolis, Minn
Protocol: (§1) The binding of each clone to the cadherin/Fc chimeric proteins was confirmed by ELISA. Wells of ProBind microtiter plates (Falcon) were coated with either N-cadherin/Fc or E-cadherin/Fc chimeric protein (100 ng/well) or human IgG1 (which contains the Fc fragment) (100 ng/well). After blocking the nonspecific sites with TBS containing 3% BSA and 1.2 mM CaCl2 for 1 h at 37° C., phage clones (10^9 pfu) diluted in TBST containing 3% BSA and 1.2 mM CaCl2 (100 μl/well). Non-coated wells were also used to exclude any phage that bound to the plastic surface. After 1 h incubation at room temperature, wells were washed 3 times with TBST containing 3% BSA and 1.2 mM CaCl2. M13 phage without any insert were used to control the non-specific binding of the phage itself to the target. Monoclonal anti-M13 antibody conjugated to horseradish peroxidase (Amersham Biosciences, Piscataway, N.J.) was diluted in TBST containing 3% BSA and 1.2 mM CaCl2 (1:2,000) and added to each well (100 μl/well). After 1 h incubation at room temperature, wells were washed three times with TBST containing 3% BSA and 1.2 mM CaCl2 and once with TBS containing 1.2 mM CaCl2. Horseradish peroxidase substrate, TMB (Sigma), was added to each well (100 μl/well and after color development the reaction was stopped by addition of 100 μl 0.5 M sulphuric acid to each well. The intensity of the color was measured at 450 nm.
(§2) The phage clones shown to bind to the N-cadherin/Fc chimeric protein by ELISA were also evaluated for their ability to bind to E-cadherin/Fc and VE-cadherin/Fc chimeric proteins. The phage clones shown to bind to the E-cadherin/Fc chimeric protein by ELISA were also evaluated for their ability to bind to N-cadherin/Fc and VE-cadherin/Fc chimeric proteins. The same ELISA protocol described in the previous section was used to perform this evaluation with the exception that the wells were coated with either 100 ng N-cadherin/Fc, E-cadherin/Fc or VE-cadherin/Fc chimeric protein (R&D Systems, Minneapolis, Minn.).

[2] = molecular target: T2, N-cadherin/Fc chimeric protein (Homo sapiens, UniProt P19022); assay: Cadherin/Fc binding assay: phage ELISA on N-cadherin/Fc; design: key to ELISA Phage Binding to N-Cadherin/Fc Chimeric Protein 1.2 mM calcium / ELISA Phage Binding to N-Cadherin/Fc Chimeric Protein 2 mM EDTA / ELISA Phage Binding to Cadherin/Fc Chimeric Proteins N−: +: Phage bound to the chimeric protein; −: No phage bound to the chimeric protein
T2 construct: extracellular domain of human N-cadherin (Asp160-Ala724); purchased R&D Systems, Minneapolis, Minn
T2 sequence (P19022 160-724): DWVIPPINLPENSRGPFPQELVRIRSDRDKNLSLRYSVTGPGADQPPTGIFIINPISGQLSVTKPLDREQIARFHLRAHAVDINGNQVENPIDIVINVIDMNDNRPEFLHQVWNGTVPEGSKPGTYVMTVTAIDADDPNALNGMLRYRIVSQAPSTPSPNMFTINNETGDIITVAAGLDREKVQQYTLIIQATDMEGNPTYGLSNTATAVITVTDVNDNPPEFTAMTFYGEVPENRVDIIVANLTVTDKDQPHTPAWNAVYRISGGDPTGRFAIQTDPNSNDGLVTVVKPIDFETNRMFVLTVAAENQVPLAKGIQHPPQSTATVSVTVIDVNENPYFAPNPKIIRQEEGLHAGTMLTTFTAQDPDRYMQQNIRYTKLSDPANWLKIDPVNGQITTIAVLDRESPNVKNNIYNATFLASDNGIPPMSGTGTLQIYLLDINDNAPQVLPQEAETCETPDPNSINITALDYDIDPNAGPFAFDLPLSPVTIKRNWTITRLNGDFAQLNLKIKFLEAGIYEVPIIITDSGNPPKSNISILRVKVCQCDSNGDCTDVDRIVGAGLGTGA
Text: (§3) The peptide libraries, Ph.D.-C7C™ and Ph.D.-12™ (New England BioLabs) were used in this study. These libraries are composed of 2×10^9 randomized 7 amino acid sequences flanked by cysteine residues and linear 12 amino acid sequences, respectively. The amino acid sequences are incorporated into the minor coat protein, pIII, of M13 phage. The N-cadherin/Fc chimeric protein (R&D Systems, Minneapolis, Minn.) consists of the extracellular domain of human N-cadherin (Asp160-Ala724) and the Fc region of human IgG1. The E-cadherin/Fc chimeric protein (R&D Systems, Minneapolis, Minn.) consists of the extracellular domain of human E-cadherin (Asp155-Ile707) and the Fc region of human IgG1.
The binding of each clone to the cadherin/Fc chimeric proteins was confirmed by ELISA. Wells of ProBind microtiter plates (Falcon) were coated with either N-cadherin/Fc or E-cadherin/Fc chimeric protein (100 ng/well) or human IgG1 (which contains the Fc fragment) (100 ng/well). […] Non-coated wells were also used to exclude any phage that bound to the plastic surface. […] M13 phage without any insert were used to control the non-specific binding of the phage itself to the target. […] […] Horseradish peroxidase substrate, TMB (Sigma), was added to each well (100 μl/well and after color development the reaction was stopped by addition of 100 μl 0.5 M sulphuric acid to each well. The intensity of the color was measured at 450 nm.
as §2

[3] = molecular target: T3, E-cadherin/Fc chimeric protein (Homo sapiens, UniProt P12830); assay: Cadherin/Fc binding assay: phage ELISA on E-cadherin/Fc; design: key: +: Phage bound to the chimeric protein; −: No phage bound to the chimeric protein
T3 construct: extracellular domain of human E-cadherin (Asp155-Ile707); purchased R&D Systems, Minneapolis, Minn
T3 sequence (P12830 155-707): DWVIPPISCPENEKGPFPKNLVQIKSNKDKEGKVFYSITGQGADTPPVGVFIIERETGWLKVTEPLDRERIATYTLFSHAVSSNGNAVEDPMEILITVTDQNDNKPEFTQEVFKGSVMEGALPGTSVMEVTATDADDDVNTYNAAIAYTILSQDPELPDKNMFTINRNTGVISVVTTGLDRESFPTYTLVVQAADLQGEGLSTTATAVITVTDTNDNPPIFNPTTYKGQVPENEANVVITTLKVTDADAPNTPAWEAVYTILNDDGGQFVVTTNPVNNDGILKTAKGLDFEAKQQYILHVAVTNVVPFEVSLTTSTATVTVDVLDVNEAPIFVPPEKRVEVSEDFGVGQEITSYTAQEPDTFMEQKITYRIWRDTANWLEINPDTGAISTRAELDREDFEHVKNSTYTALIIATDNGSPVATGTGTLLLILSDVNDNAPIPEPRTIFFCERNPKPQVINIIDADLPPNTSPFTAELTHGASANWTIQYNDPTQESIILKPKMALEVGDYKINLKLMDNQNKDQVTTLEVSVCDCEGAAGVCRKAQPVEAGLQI
Text: as §3, §1, §2

[4] = Table 2, Ph.D.-C7C library clones
[5] = Table 4, Ph.D.-12 library clones
[6] = Table 6, Ph.D.-C7C clones selected on E-cadherin/Fc
[7] = Table 7, Ph.D.-12 clones selected on E-cadherin/Fc

T1 sequence (P33151 with tags, fused parts or gaps limits assumed, species assumed): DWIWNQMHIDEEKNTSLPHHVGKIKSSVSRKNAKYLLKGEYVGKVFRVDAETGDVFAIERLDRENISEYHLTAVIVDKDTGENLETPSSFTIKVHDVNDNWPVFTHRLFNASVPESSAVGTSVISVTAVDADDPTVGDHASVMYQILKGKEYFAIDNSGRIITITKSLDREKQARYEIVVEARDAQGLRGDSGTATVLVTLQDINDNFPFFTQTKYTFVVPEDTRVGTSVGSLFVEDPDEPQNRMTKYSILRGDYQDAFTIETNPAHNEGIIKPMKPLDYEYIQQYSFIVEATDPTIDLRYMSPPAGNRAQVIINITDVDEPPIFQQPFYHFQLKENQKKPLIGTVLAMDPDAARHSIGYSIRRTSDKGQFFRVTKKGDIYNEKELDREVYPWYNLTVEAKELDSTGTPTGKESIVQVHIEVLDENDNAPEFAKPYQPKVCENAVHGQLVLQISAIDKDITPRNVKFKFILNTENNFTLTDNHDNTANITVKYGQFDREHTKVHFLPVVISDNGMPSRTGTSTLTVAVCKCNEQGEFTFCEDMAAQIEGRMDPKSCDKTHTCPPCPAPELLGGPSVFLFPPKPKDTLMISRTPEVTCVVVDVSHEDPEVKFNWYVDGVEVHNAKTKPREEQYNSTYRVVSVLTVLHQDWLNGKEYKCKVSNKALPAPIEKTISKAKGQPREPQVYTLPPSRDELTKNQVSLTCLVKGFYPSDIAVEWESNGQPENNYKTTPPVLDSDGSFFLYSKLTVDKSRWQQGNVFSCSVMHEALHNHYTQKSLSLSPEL

Row | ELISA Phage Binding to Cadherin/Fc Chimeric Proteins VE− [1, 4] | ELISA Phage Binding to N-Cadherin/Fc Chimeric Protein 1.2 mM calcium [2, 4] | ELISA Phage Binding to N-Cadherin/Fc Chimeric Protein 2 mM EDTA [2, 4] | ELISA Phage Binding to Cadherin/Fc Chimeric Proteins E− [3, 4] | ELISA Phage Binding to Cadherin/Fc Chimeric Proteins VE− [1, 6] | ELISA Phage Binding to Cadherin/Fc Chimeric Proteins N− [2, 6] | ELISA Phage Binding to Cadherin/Fc Chimeric Proteins E− [3, 6] | Sequence | also measured
1 | − | + | − | − |  |  |  | WELCVSSSC [Nc 25] | 
2 |  |  |  |  |  |  |  | NWFIDFPVYPPL [Nc 12-a1] | ELISA Phage Binding to Cadherin/Fc Chimeric Proteins VE− [1, 5]: −; ELISA Phage Binding to N-Cadherin/Fc Chimeric Protein 1.2 mM calcium [2, 5]: +; ELISA Phage Binding to N-Cadherin/Fc Chimeric Protein 2 mM EDTA [2, 5]: +; ELISA Phage Binding to Cadherin/Fc Chimeric Proteins E− [3, 5]: −
3 |  |  |  |  | − | + | + | CSKYNSPLC [Ec a4] | 
4 |  |  |  |  | − | + | + | CSRPQSGLC [Ec a23] | 
5 |  |  |  |  | − | + | + | WELVQCLTC [Ec 1] | 
6 |  |  |  |  | − | + | + | WTFNFCTAC [Ec a5] | 
7 |  |  |  |  | − | + | + | WQWCFKATC [Ec 21] | 
8 | − | + | − | − |  |  |  | WEFSICETC [Nc 5] | 
9 |  |  |  |  |  |  |  | EWTWVFPTTHTS [Ec 12-07] | ELISA Phage Binding to Cadherin/Fc Chimeric Proteins VE− [1, 7]: −; ELISA Phage Binding to Cadherin/Fc Chimeric Proteins N− [2, 7]: +; ELISA Phage Binding to Cadherin/Fc Chimeric Proteins E− [3, 7]: +
10 | − | + | − | − |  |  |  | WTVCPIGNC [Nc 8] | 
